Results on one compound are retold here after publication PMC6844382, “Design, synthesis and evaluation of quinolinone derivatives containing dithiocarbamate moiety as multifunctional AChE inhibitors for the treatment of Alzheimer’s disease” (Journal of Enzyme Inhibition and Medicinal Chemistry, 2019).

In general, inhibition refers to the change of the read-out against control, counted positive when it falls. What is called Papp is the rate of passage across a membrane or cell layer, normalised by area and donor concentration. Low values mean slow passage, high ones fast passage. What is called Ki is a measure of affinity in units of concentration, obtained from inhibition or displacement. The IC50 is the midpoint of a concentration-inhibition curve.

One data set has as its target T1, eqBuChE (Equus caballus, UniProt P81908).
T1 construct: eqBuChE (from equine serum); purchased Sigma-Aldrich (St. Louis, MO, USA); host or cells: equine serum
Nature of the data set: In vitro inhibition of eqBuChE (Ellman method). The class given is biochemical, equine. The settings on record: read-out: eqBuChE Inhibition (%). (In Ellman's method for cholinesterases, released thiocholine reacts with DTNB.)

The target of data set [1] is T2, AChE-induced Aβ1-42 aggregation (Electrophorus electricus, UniProt O42275).
T2 construct: eeAChE (from electric eel); purchased eeAChE: Sigma-Aldrich (St. Louis, MO, USA); Aβ1-42: Royobiotech Co., Ltd (Shanghai, China)
T2 sequence (O42275 24-633): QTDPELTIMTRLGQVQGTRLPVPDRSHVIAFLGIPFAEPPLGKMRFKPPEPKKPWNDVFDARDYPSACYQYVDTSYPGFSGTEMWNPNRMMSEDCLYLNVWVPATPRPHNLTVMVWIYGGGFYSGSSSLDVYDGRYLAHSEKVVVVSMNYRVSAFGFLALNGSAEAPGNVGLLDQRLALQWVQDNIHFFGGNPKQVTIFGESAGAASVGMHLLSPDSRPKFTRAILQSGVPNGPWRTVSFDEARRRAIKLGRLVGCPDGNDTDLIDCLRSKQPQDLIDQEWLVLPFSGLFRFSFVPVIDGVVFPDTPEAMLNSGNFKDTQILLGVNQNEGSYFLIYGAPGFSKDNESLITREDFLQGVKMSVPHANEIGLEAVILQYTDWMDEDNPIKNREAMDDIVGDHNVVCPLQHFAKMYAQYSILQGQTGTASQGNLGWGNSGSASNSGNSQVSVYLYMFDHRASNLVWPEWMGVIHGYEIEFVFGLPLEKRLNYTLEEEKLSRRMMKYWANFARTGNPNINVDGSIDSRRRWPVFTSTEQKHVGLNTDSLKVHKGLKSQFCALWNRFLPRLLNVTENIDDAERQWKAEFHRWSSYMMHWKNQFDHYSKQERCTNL
In words: Inhibition of AChE-induced Aβ1-42 aggregation (ThT assay). The class given is biochemical. The note with it: inhibitor 100 μM; thioflavin-T fluorescence.
Experimental: 1, 1, 1, 3, 3, 3-hexafluoro-2-propanol (HFIP) and Thioflavin T (ThT) were obtained from TCI (Shanghai) Development. β-Amyloid1-42 (Aβ1-42), supplied as trifluoroacetate salt, and eeAChE were purchased from Royobiotech Co., Ltd (Shanghai, China) and Sigma-Aldrich (St. Louis, MO, USA), respectively. For co-incubation experiments, aliquots of Aβ1-42 peptide and AChE in presence or absence of the test compounds were incubated for 48 h at 37 °C. […] The percent inhibition of the AChE-induced Aβ aggregation due to the presence of inhibitor was calculated by the following formula: 100 – (IFi/IFo*100), where IFi and IFo are the fluorescence intensities obtained for Aβ1-42 aggregation in the presence and in the absence of inhibitor, respectively. Each assay was run in triplicate and each reaction was repeated at least three independent times.

The conditions of data set [2]: from PAMPA-BBB Pe.
Experimental: Afterwards, the acceptor filter plate was carefully placed on the donor plate to make the coated membrane touch both donor solution and acceptor buffer. […] Pe was calculated by the following expression: Pe = {−VdVa/[(Vd + Va)At]}ln (1-drugacceptor/drugequilibrium), where Vd is the volume of donor well, Va is volume in acceptor well, A is the filter area, t is the permeation time, drugacceptor is the absorbance obtained in the acceptor well and drugequilibrium is the theoretical equilibrium absorbance. Each compound was analysed at five wavelengths in four wells at least three independent runs, and the results were expressed as mean ± SD.
A further data set is described as follows: in vitro. The settings on record: PAMPA.
For data set [3], the system named is human neuroblastoma SH-SY5Y cells. In words: Cytotoxicity on SH-SY5Y cells (MTT assay). The class given is cell-based. The note with it: 12.5–100 µM, 24 h. The method, then:
The cytotoxicity of test compound on the human neuroblastoma SH-SY5Y cells was evaluated by MTT assay. The SH-SY5Y cells were grown in a 1:1 mixture of Eagle's minimum essential medium (EMEM) and ham's F-12 medium supplemented with 10% foetal bovine serum (FBS), 100 U/mL penicillin and […] streptomycin in 5% CO2 at 37 °C. For assay, cells were seeded into 96-well plates at a density of 10000 cells/well and treated with compound 4c for 24 h. After this treatment, 20 μL of MTT at 37 °C was added. Four hours later, the medium was removed, and 200 μL of DMSO was added to dissolve the formazan crystal formed. The absorbance was measured using a microculture plate reader with a test wavelength of 570 nm and a reference wavelength of 630 nm. Results are expressed as the mean ± SD of three independent experiments.
(In general: Formazan colour is commonly taken as a measure of viable cells.)

Another data set concerns Kunming mice. In words: Acute oral toxicity study. Format: in vivo. The settings on record: oral, 625, 1250 and 2500 mg/kg, observed 14 days. As to the method: A total of 40 Kunming mice (half male and half female) were used to determine the acute toxicity of compound 4c[31]^,[32]. All mice weighting 18–25 g were obtained from Hunan SJA Laboratory Animal Co., Ltd. and randomly divided into corresponding groups. They were maintained under a 12 h light/dark cycle and allowed free access to tap water and standard laboratory chow. The room was maintained at temperature of 23 ± 2 °C with a relative humidity of 55 ± 5%. Prior to dosing, all animals were acclimated to this environment for 5 days. Compound 4c was suspended in 0.5% carboxymethyl cellulose sodium (CMC-Na) salt solution and given via oral administration to the divided experimental groups (0, 625, 1250 and 2500 mg/kg, n = 10 per group). After administration, animals were observed continuously for the first 4 h for any abnormal behavioural changes or deaths, then intermittently for the next 24 h, and occasionally thereafter for 14 days for the onset of any delayed effects. On the 14th day, all mice were sacrificed after being anaesthetized by ether, and the possible toxic damage to liver, heart and kidneys was examined macroscopically.

Data set [4] deals with T3, hAChE (Homo sapiens, UniProt P22303). Nature of the data set: Kinetic study of hAChE inhibition (Lineweaver-Burk). The class given is biochemical. The arrangement: Acetylcholinesterase (AChE, from electric eel and human erythrocytes); purchased Sigma-Aldrich (St. Louis, MO, USA). The method, then:
To determine the inhibition mechanism of present compounds, compound 4c was taken for kinetic analysis by Ellman’s method. Three concentrations of 4c were selected for the study, and hAChE was chosen as enzyme source. Following a similar method mentioned above in enzyme inhibition assay, Lineweaver–Burk reciprocal plots were constructed by plotting 1/velocity against 1/[substrate] at varying concentrations of the substrate acetylthiocholine (0.05 – 0.5 mM). All measurements were performed in triplicate and data analysis was performed with Graph Pad Prism 4.03 software (San Diego, CA, USA).

Data set [5] deals with T4, self-induced Aβ1-42 aggregation (Homo sapiens, UniProt P05067).
T4 construct: Aβ1-42 was obtained from Royobiotech Co., Ltd (Shanghai, China); purchased Royobiotech Co., Ltd (Shanghai, China)
T4 sequence (P05067 672-713): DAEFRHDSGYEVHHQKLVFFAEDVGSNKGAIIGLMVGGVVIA
Nature of the data set: Inhibition of self-induced Aβ1-42 aggregation (ThT assay). The class given is biochemical. The settings on record: read-out: Inhibition of Aβ1–42 aggregation (%) Self-induced. The method, then: The inhibitory activities of compounds 4c-f and 9a-b on self-induced Aβ1-42 aggregation were also measured by the ThT assay. HFIP and ThT were purchased from TCI (Shanghai) Development. Aβ1-42 was obtained from Royobiotech Co., Ltd (Shanghai, China). The monomeric Aβ1-42 samples were prepared by HFIP and diluted with a 50 mM phosphate buffer (pH 7.4) to give a 25 μM solution. The test compound was dissolved in DMSO (250 μM) for storage and needed not to be diluted prior to use. […]. Then, 200 μL of 5 μM ThT in 50 mM glycine-NaOH buffer (pH 8.0) was added, and the percent inhibition was calculated by the method same as that of AChE-induced Aβ1–42 experiment.

The target of data set [6] is T3, hAChE. Nature of the data set: In vitro inhibition of hAChE (Ellman method). Format: biochemical. More on the design: Acetylcholinesterase (AChE, from electric eel and human erythrocytes); purchased Sigma-Aldrich (St. Louis, MO, USA); host or cells: human erythrocytes.
Experimental: (§1) The in vitro inhibitory activities of test compounds against AChE and BuChE were determined by the spectrophotometric method of Ellman[25]. […] For each assay, 160 μL of 1.5 mM DTNB, 50 μL of AChE (0.22 U/mL for eeAChE; 0.05 U/mL for hAChE) or eqBuChE (0.12 U/mL) were incubated with 10 μL of different concentrations of test compounds at 37 °C for 6 min.
The target in a further data set is T5, eeAChE (Electrophorus electricus, UniProt O42275).
T5 construct: eeAChE (from electric eel); purchased Sigma-Aldrich (St. Louis, MO, USA); host or cells: electric eel
T5 sequence (O42275 24-633): as the sequence (O42275 24-633) above
Nature of the data set: In vitro inhibition of eeAChE (Ellman method). Format: biochemical, electric eel.

“Also recorded” adds a separate entry of the source.

T3 sequence (P22303 32-617 isoform P22303-2 limits assumed): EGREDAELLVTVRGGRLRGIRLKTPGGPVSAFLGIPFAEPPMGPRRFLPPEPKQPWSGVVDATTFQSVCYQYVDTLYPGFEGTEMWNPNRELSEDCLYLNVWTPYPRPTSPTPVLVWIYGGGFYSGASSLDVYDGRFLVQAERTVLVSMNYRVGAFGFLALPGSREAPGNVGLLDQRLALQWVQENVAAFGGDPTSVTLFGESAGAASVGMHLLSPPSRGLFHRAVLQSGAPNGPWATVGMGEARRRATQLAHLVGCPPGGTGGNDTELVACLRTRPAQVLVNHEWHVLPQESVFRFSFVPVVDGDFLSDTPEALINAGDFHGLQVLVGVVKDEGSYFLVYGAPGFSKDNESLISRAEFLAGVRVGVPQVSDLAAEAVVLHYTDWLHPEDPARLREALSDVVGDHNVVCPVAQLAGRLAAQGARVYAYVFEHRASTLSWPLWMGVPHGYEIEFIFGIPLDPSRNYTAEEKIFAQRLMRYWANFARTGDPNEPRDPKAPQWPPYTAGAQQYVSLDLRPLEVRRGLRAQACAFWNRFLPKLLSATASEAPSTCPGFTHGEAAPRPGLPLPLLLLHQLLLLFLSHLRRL
T1 sequence (P81908 whole entry): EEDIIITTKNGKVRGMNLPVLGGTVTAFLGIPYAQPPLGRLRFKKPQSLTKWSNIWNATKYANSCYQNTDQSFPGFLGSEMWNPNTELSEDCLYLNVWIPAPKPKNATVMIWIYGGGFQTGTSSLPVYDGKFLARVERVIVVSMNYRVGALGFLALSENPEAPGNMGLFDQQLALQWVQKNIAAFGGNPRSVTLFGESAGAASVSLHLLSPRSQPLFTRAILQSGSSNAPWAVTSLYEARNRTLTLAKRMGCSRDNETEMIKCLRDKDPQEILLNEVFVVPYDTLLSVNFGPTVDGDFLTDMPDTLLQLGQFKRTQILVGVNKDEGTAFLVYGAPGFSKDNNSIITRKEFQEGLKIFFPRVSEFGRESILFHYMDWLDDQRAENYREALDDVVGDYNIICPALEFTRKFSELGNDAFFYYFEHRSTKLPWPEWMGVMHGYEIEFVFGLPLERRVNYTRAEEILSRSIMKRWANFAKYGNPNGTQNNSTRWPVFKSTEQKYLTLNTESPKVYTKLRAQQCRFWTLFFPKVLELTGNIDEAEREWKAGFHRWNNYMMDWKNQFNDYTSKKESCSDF
Experimental for eeAChE: as §1
Experimental for eqBuChE: as §1

For `O=c1ccc2ccc(OCCCCSC(=S)N3CCCCC3)cc2[nH]1` [4c, 4-((2-oxo-1,2-dihydroquinolin-7-yl)oxy)butyl piperidine-1-carbodithioate], on eqBuChE, the inhibition at 10 µM came out at 45.4 ± 8.34%. Further, the inhibition at 100 µM in data set [1] stood at 29 ± 2.06%. Moreover, the “Prediction of penetration into CNS” value in data set [2] was “CNS+ (CNS + is predicted as high BBB permeation with Pe (×10^6 cm/s) > 3.33)”. The Papp at 18 h, 25 μg/mL in “in vitro” amounted to 89.1 ± 20.3 nm/s. The “effect on cell viability (cytotoxicity)” value in data set [3] is recorded as “did not show a significant effect on cell viability; also recorded: negligible toxicity; also recorded: no toxicity”. Further, in the data set with Kunming mice, the acute toxicity entry is given as “no evident toxicity signs; also recorded: no significant acute toxicity; also recorded: well tolerated”. At hAChE [4] (Lineweaver-Burk plots, hAChE, 0.1, 0.2, 0.4 μM inhibitor), the type of inhibition result is “mixed-type inhibitor; also recorded: mixed-type inhibition”. Further, the Ki on hAChE [4] (replots of slope versus concentration of 4c, hAChE, read-out: competitive inhibition constant Ki) stood at 0.225 µM. Besides, the inhibition at 25 µM in data set [5] was 30.7 ± 6.54%. The IC50 is 0.16 ± 0.02 µM against hAChE [6] and 0.22 ± 0.03 µM against eeAChE. For the same compound, the “fold more potent on hAChE than tacrine” value at hAChE [6] (ratio of hAChE IC50 values) is listed as about 3 fold. The “times more potent than galanthamine on AChE” value on eeAChE (ratio of eeAChE IC50 values) turned out to be 7.5 times.
